{"source": "patent US20090030037A1", "about": "“Sustained Release Formulation and Dosing Schedules of Leukotriene Synthesis Inhibitor for Human Therapy” (deCODE Genetics ehf., priority 2005, published 2009)", "key": {"[1]": {"experiment": "Study DG-031-204: creatine kinase", "format": "in vivo, human", "conditions": "500 mg BID or TID", "description": "(§1) An additional single site, open label study was carried out to obtain biomarker and safety data on additional DG-031 doses (i.e., 1000 mg and 1500 mg). This study examined the safety, tolerability and dose-related effects of DG-031 on inflammatory biomarkers including: LTB4, hsCRP, and MPO. A total of 119 patients with a prior history of CAD and MI were randomized to receive either 1000 mg DG-031 (500 mg BID) or 1500 mg DG-031 (500 mg TID) daily for 4-6 weeks. Treatment with DG-031 in addition to the subject's standard care, medication, and treatment, was prescribed by the patient's cardiologist. A majority of the subjects received statin therapy before, during and after the study. Follow-up assessments were performed 2 weeks after the end of study drug administration.\nLiver function tests (AST, ALT, GGT) were assessed weekly during study drug administration and two weeks after dosing. […] Serum creatinine (Cr) was measured weekly during study drug administration and two weeks after dosing. In both the 500 mg BID and 500 mg TID treatment groups, mean serum Cr concentrations increased 4-5% relative to baseline levels. At the 2-week follow up visit, mean serum Cr returned to baseline in the cohort treated for 4 weeks, but remained elevated in the group treated for 6 weeks. Creatine kinase (CK) measurements were obtained weekly during study drug administration and two weeks after dosing."}, "[2]": {"experiment": "Study DG-031-204: steady state DG-031 plasma concentrations", "format": "in vivo, human", "conditions": "for concentration at 0 h / concentration at 0.5 h / concentration at 1 h / concentration at 2 h / concentration at 4 h / concentration at 6 h: human, plasma, oral, 500 mg, read-out: Steady state DG-031 exposure, Geometric Mean; for concentration at 0 h: 0 hr post dose; for concentration at 0.5 h: 0.5 hr post dose; for concentration at 1 h: 1 hr post dose; for concentration at 2 h: 2 hr post dose; for concentration at 4 h: 4 hr post dose; for concentration at 6 h: 6 hr post dose", "description": "Blood samples were collected for determining DG-031 concentrations in a subset of patients (n=22). Samples were collected just prior to dosing and at 0.5, 1, 2, 4, and 6 hours following administration of DG-031 500 mg BID or TID."}, "[3]": {"experiment": "Population pharmacokinetic analysis (studies DG-031-201, DG-031-203)", "format": "in vivo, human", "description": "Preliminary population pharmacokinetic (PK) analysis was also carried out based on clinical studies DG-031-201 and DG-031-203. Based on visual inspection of the individual and mean time course of DG-031 concentrations, a simple one compartmental disposition model following first order oral absorption, and an absorption lag time was fit to the data. A mixed effects modeling approach was used. The pharmacokinetic model parameters (fixed effects) included oral clearance (CL), distribution volume (V), oral absorption (ka), and absorption lag (tiag). The statistical model includes inter-individual random effects as well as a residual error term. All inter-subject random effect parameters (it's) and residual error terms (&) are assumed to be normally distributed with mean of zero and variance o2 and a2, respectively. Random effects on all pharmacokinetic model parameters were explored. Maximum likelihood estimates of the structural (0's) and statistical model parameters were estimated using an approximation to the mixed effect log-likelihood as implemented in the NONMEM program (NONMEM Version Vi).\nThe influence of patient characteristics (covariates) on pharmacokinetic parameters was explored. Age, gender, body weight, and CrCL (creatinine clearance) were included in the model as covariates if warranted.\nModel selection will be done on the basis of the log-likelihood criterion (p<0.05) and visual inspection of goodness-of-fit plots. The difference in −2 times the log of the likelihood (−2LL) between a full and reduced model is asymptotically χ^2 distributed with degrees of freedom equal to the difference in number of parameters between the two models. For instance, a decrease of more than 3.84 in −2LL is considered significant at the p<0.05 level for 1 additional parameter. Standard errors of the parameter estimates are approximated using the asymptotic covariance matrix."}, "[4]": {"conditions": "healthy volunteers, total daily dose 100-1000 mg, less than 14 days; cited from earlier work"}, "[5]": {"tested_on": "hsCRP", "experiment": "Study DG-031-204: hsCRP", "format": "in vivo, human", "conditions": "after 4 weeks", "description": "as §1\nThe biomarkers were analyzed as described in Example 1. Statistical analysis of the data was carried out using a one-sample t-test on change from baseline with a two-sided nominal significance level of 0.050. Biomarker concentrations were log-transformed and a simple last observation carried forward (LOCF) scheme was used to impute missing observations.\nAdditionally, hsCRP was measured weekly and tended to decrease in the 1000 mg treatment group. […]"}}, "note": "Where two headings read alike, the source gives them in different places.", "data": [{"smiles": "O=C(O)[C@@H](c1ccc(OCc2ccc3ccccc3n2)cc1)C1CCCC1", "note": "[DG-031, (R)-(+)-alpha-cyclopentyl-4-(2-quinolinylmethoxy)-Benzeneacetic acid]", "values": [{"measurement": "Mean CK concentrations", "setting": "[1]", "result": "No adverse trends"}, {"measurement": "DG-031 concentrations observed", "setting": "[2]; 500 mg BID or TID, subset n=22", "result": "up to 20.3 μg/mL"}, {"measurement": "Mean trough concentration", "setting": "[2]; 500 mg BID, steady state", "result": 4.3, "unit": "µg/mL"}, {"measurement": "Observed mean peak concentration", "setting": "[2]; 500 mg BID, steady state", "result": 8.8, "unit": "µg/mL"}, {"measurement": "Observed peak to trough fluctuation", "setting": "[2]; 12 hour period, BID dosing regimen", "result": "2-3 fold"}, {"measurement": "concentration at 0 h", "setting": "[2]; 500 mg BID", "result": 4300, "unit": "ng/mL"}, {"measurement": "concentration at 0.5 h", "setting": "[2]; 500 mg BID", "result": 4700, "unit": "ng/mL"}, {"measurement": "concentration at 1 h", "setting": "[2]; 500 mg BID", "result": 6100, "unit": "ng/mL"}, {"measurement": "concentration at 2 h", "setting": "[2]; 500 mg BID", "result": 8600, "unit": "ng/mL"}, {"measurement": "concentration at 4 h", "setting": "[2]; 500 mg BID", "result": 8800, "unit": "ng/mL"}, {"measurement": "concentration at 6 h", "setting": "[2]; 500 mg BID", "result": 7000, "unit": "ng/mL"}, {"measurement": "concentration at 0 h", "setting": "[2]; 500 mg TID", "result": 6900, "unit": "ng/mL"}, {"measurement": "concentration at 0.5 h", "setting": "[2]; 500 mg TID", "result": 6800, "unit": "ng/mL"}, {"measurement": "concentration at 1 h", "setting": "[2]; 500 mg TID", "result": 8500, "unit": "ng/mL"}, {"measurement": "concentration at 2 h", "setting": "[2]; 500 mg TID", "result": 10100, "unit": "ng/mL"}, {"measurement": "concentration at 4 h", "setting": "[2]; 500 mg TID", "result": 10000, "unit": "ng/mL"}, {"measurement": "concentration at 6 h", "setting": "[2]; 500 mg TID", "result": 7400, "unit": "ng/mL"}, {"measurement": "PK linearity", "setting": "[3]; 250 mg to 1500 mg administered daily", "result": "linear PK"}, {"measurement": "oral CL", "setting": "[3]; 90 kg patient", "result": 5.86, "unit": "L/h"}, {"measurement": "Accumulation", "setting": "[3]; BID dosing", "result": 12, "unit": "%"}, {"measurement": "V (distribution volume)", "setting": "[3]; human, plasma, oral", "result": 32, "unit": "L"}, {"measurement": "V, inter-subject CV %", "setting": "[3]; human, plasma, oral", "result": 44, "unit": "%"}, {"measurement": "half-life", "setting": "[3]; human, plasma, oral, MI patients, estimated, read-out: Terminal elimination half-life (converted)", "result": "~4", "unit": "h"}, {"measurement": "Effect of body weight on CL", "setting": "[3]; in vivo", "result": "minor effects"}, {"measurement": "Safety and tolerability", "setting": "[4]", "result": "safe and well tolerated"}, {"measurement": "hsCRP reduction, mean change from baseline", "setting": "[5]; 1000 mg treatment group", "result": 20, "unit": "%"}, {"measurement": "hsCRP reduction, mean change from baseline", "setting": "[5]; 1500 mg treatment group", "result": 3, "unit": "%"}]}]}
